Reference: patent publication US12540131B2 (Merck Sharp & Dohme LLC, priority 2019, dated 2026)

Each molecule was assayed against GST tagged truncated human mutant G2019S LRRK2 (Homo sapiens (Human), UniProt Q5S007, G2019S) (assay: LRRK2 Km ATP LanthaScreen Assay). Details: G2019S LRRK2, 134 μM ATP (Km ATP), mean values.
Format: biochemical
Outline: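 Enzyme (GST-tagged, truncated) was preincubated with compound for 15 min at RT in 50 mM Tris pH 8.5, 10 mM MgCl2, 0.01% Brij-35, 1 mM EGTA, 2 mM DTT and 0.05 mM orthovanadate. Fluorescein-LRRKtide and 134 μM ATP (Km) were then added for 90 min. EDTA and Tb-anti-pERM antibody stopped the reaction; the TR-FRET 520/495 ratio gave 4-parameter IC50s, reported as mean pIC50.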

GST tagged truncated human mutant G2019S LRRK2, sequence (Q5S007 970-2527 G2019S): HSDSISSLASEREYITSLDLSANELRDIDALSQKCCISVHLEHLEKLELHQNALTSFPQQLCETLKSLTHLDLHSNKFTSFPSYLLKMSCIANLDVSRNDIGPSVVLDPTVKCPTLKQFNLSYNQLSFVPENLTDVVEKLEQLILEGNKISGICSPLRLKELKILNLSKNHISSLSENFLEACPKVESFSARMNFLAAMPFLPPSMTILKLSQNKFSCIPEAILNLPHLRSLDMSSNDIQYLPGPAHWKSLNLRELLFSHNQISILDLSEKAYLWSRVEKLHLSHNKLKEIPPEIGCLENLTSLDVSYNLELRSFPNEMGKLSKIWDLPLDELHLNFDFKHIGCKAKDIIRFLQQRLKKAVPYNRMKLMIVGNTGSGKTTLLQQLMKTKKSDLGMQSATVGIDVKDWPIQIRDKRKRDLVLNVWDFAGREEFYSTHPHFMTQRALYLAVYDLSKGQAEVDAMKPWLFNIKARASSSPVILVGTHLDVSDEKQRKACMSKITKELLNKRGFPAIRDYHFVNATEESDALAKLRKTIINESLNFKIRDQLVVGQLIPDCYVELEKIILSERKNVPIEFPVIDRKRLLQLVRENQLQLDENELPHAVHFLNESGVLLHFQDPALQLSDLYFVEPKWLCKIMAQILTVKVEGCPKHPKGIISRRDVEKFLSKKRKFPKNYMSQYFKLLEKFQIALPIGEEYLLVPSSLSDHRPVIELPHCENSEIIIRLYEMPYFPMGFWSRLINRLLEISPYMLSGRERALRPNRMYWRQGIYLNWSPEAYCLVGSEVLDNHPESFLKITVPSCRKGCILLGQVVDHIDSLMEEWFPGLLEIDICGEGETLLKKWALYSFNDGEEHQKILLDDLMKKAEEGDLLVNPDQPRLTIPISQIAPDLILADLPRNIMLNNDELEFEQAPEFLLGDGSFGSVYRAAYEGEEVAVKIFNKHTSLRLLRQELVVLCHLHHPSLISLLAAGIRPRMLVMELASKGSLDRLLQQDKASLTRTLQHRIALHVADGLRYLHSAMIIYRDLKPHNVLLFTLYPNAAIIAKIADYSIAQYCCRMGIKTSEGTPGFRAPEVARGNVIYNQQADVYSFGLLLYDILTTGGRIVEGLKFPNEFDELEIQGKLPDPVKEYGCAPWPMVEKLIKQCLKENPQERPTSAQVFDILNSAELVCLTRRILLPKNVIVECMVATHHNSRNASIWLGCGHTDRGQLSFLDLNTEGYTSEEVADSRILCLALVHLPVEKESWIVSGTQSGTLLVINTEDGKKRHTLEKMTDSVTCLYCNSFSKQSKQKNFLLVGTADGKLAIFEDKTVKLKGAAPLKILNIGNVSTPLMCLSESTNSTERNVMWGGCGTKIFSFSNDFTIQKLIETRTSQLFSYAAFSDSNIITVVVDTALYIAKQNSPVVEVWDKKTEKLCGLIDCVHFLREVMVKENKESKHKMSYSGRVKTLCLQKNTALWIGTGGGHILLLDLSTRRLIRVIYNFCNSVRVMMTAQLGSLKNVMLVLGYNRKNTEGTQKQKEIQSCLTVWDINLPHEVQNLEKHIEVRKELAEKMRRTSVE

| SMILES | LRRK2 pIC50 |
| --- | --- |
| C[C@@]1(N2CC[C@@H](c3cc4nc(Nc5cnn(C6CC6(F)F)c5Cl)ncc4cc3Cl)[C@H](F)C2)COC[C@@H]1O (single isomer, unassigned) [Ex-4.230, (R)(3S,4S)(3S,4S) or (R)(3S,4S)(3R,4R) or (R)(3R,4R)(3S,4S) or (R)(3R,4R)(3R,4R) or (S)(3S,4S)(3S,4S) or (S)(3S,4S)(3R,4R) or (S)(3R,4R)(3S,4S) or (S)(3R,4R)(3R,4R) 4-(4-(6-chloro-2-((5-chloro-1-(2,2-difluorocyclopropyl)-1H-pyrazol-4-yl)amino)quinazolin-7-yl)-3-fluoropiperidin-1-yl)-4-methyltetrahydrofuran-3-ol] | 9.13 |
| O[C@H]1COC[C@H]1N1CC[C@@H](c2cc3nc(Nc4cnn(C56CC(F)(C5)C6)c4Cl)ncc3cc2Cl)[C@H](F)C1 (single isomer, unassigned) [Ex-4.231, (3S,4S)(3S,4S) or (3S,4S)(3R,4R) or (3R,4R)(3S,4S) or (3R,4R)(3R,4R) 4-[4-(6-chloro-2-{[5-chloro-1-(3-fluorobicyclo[1.1.1]pentan-1-yl)-1H-pyrazol-4-yl]amino}quinazolin-7-yl)-3-fluoropiperidin-1-yl]oxolan-3-ol] | >9.20 |
| Cc1cc2cnc(Nc3cnn(C45CC(F)(C4)C5)c3Cl)nc2cc1[C@@H]1CCN([C@@H]2COC[C@@H]2O)C[C@H]1F (single isomer, unassigned) [Ex-4.232, (3S,4S)(3S,4S) or (3S,4S)(3R,4R) or (3R,4R)(3S,4S) or (3R,4R)(3R,4R) 4-[4-(2-{[5-chloro-1-(3-fluorobicyclo[1.1.1]pentan-1-yl)-1H-pyrazol-4-yl]amino}-6-methylquinazolin-7-yl)-3-fluoropiperidin-1-yl]oxolan-3-ol] | >9.20 |
| Cn1ncc(Nc2ncc3cc(Cl)c([C@@H]4CCN([C@]5(C)COC[C@@H]5O)C[C@H]4F)cc3n2)c1Cl (single isomer, unassigned) [Ex-4.233, (3S,4S)(3S,4S) or (3S,4S)(3R,4R) or (3R,4R)(3S,4S) or (3R,4R)(3R,4R) 4-(4-{6-chloro-2-[(5-chloro-1-methyl-1H-pyrazol-4-yl)amino]quinazolin-7-yl}-3-fluoropiperidin-1-yl)-4-methyloxolan-3-ol] | >9.20 |
| Cn1ncc(Nc2ncc3cc(Cl)c([C@@H]4CCN([C@@]5(C)COC[C@H]5O)C[C@H]4F)cc3n2)c1Cl (single isomer, unassigned) [Ex-4.234, (3S,4S)(3S,4S) or (3S,4S)(3R,4R) or (3R,4R)(3S,4S) or (3R,4R)(3R,4R) 4-(4-{6-chloro-2-[(5-chloro-1-methyl-1H-pyrazol-4-yl)amino]quinazolin-7-yl}-3-fluoropiperidin-1-yl)-4-methyloxolan-3-ol] | 7.23 |
| Cc1cc(Nc2ncc3cc(Cl)c(C4CCN(C5COCC5O)CC4F)cc3n2)n(C)n1 (single isomer, unassigned) [Ex-4.235, (3S,4S)(3S,4S) or (3S,4S)(3R,4R) or (3R,4R)(3S,4S) or (3R,4R)(3R,4R) 4-(4-{6-chloro-2-[(1,3-dimethyl-1H-pyrazol-5-yl)amino]quinazolin-7-yl}-3-fluoropiperidin-1-yl)oxolan-3-ol] | 8.84 |
| Cc1cc(Nc2ncc3cc(Cl)c(C4CCN(C5COCC5O)CC4F)cc3n2)n(C)n1 (single isomer, unassigned) [Ex-4.236, (3S,4S)(3S,4S) or (3S,4S)(3R,4R) or (3R,4R)(3S,4S) or (3R,4R)(3R,4R) 4-(4-{6-chloro-2-[(1,3-dimethyl-1H-pyrazol-5-yl)amino]quinazolin-7-yl}-3-fluoropiperidin-1-yl)oxolan-3-ol] | 6.61 |
| Cn1ncc(Nc2ncc3cc(Cl)c([C@@H]4CCN([C@@]5(C)COC[C@H]5O)C[C@H]4F)cc3n2)c1Cl (single isomer, unassigned) [Ex-4.238, (3S,4S)(3S,4S) or (3S,4S)(3R,4R) or (3R,4R)(3S,4S) or (3R,4R)(3R,4R) 4-(4-{6-chloro-2-[(5-chloro-1-methyl-1H-pyrazol-4-yl)amino]quinazolin-7-yl}-3-fluoropiperidin-1-yl)-4-methyloxolan-3-ol] | 7.40 |
| Cn1ncc(Nc2ncc3cc(Cl)c([C@@H]4CCN([C@@H]5COC[C@@H]5O)C[C@H]4F)cc3n2)c1C1CC1 (single isomer, unassigned) [Ex-4.239, (3S,4S)(3S,4S) or (3S,4S)(3R,4R) or (3R,4R)(3S,4S) or (3R,4R)(3R,4R) 4-(4-{6-chloro-2-[(5-cyclopropyl-1-methyl-1H-pyrazol-4-yl)amino]quinazolin-7-yl}-3-fluoropiperidin-1-yl)oxolan-3-ol] | >9.20 |
| Cn1ncc(Nc2ncc3cc(Cl)c([C@@H]4CCN([C@H]5COC[C@H]5O)C[C@H]4F)cc3n2)c1C1CC1 (single isomer, unassigned) [Ex-4.240, (3S,4S)(3S,4S) or (3S,4S)(3R,4R) or (3R,4R)(3S,4S) or (3R,4R)(3R,4R) 4-(4-{6-chloro-2-[(5-cyclopropyl-1-methyl-1H-pyrazol-4-yl)amino]quinazolin-7-yl}-3-fluoropiperidin-1-yl)oxolan-3-ol] | 7.57 |
| Cn1ncc(Nc2ncc3cc(Cl)c([C@H]4CCN([C@@H]5COC[C@@H]5O)C[C@@H]4F)cc3n2)c1C1CC1 (single isomer, unassigned) [Ex-4.241, (3S,4S)(3S,4S) or (3S,4S)(3R,4R) or (3R,4R)(3S,4S) or (3R,4R)(3R,4R) 4-(4-{6-chloro-2-[(5-cyclopropyl-1-methyl-1H-pyrazol-4-yl)amino]quinazolin-7-yl}-3-fluoropiperidin-1-yl)oxolan-3-ol] | >9.20 |
| Cn1ncc(Nc2ncc3cc(Cl)c([C@H]4CCN([C@H]5COC[C@H]5O)C[C@@H]4F)cc3n2)c1C1CC1 (single isomer, unassigned) [Ex-4.242, (3S,4S)(3S,4S) or (3S,4S)(3R,4R) or (3R,4R)(3S,4S) or (3R,4R)(3R,4R) 4-(4-{6-chloro-2-[(5-cyclopropyl-1-methyl-1H-pyrazol-4-yl)amino]quinazolin-7-yl}-3-fluoropiperidin-1-yl)oxolan-3-ol] | 7.67 |
| Cc1cc2cnc(Nc3cnn(C4CC4)c3Cl)nc2cc1C1CCN([C@@H]2COC[C@@H]2O)[C@@H](C)C1 (single isomer, unassigned) [Ex-4.243, (3S,4S)(2S) or (3R,4R)(2S) 4-[4-{2-[(5-chloro-1-cyclopropyl-1H-pyrazol-4-yl)amino]-6-methylquinazolin-7-yl}-2-methylpiperidin-1-yl]oxolan-3-ol] | >9.20 |
| CO[C@H]1COC[C@H]1N1CC[C@@H](c2cc3nc(Nc4cnn(C5CC5(F)F)c4Cl)ncc3cc2C)[C@H](F)C1 (single isomer, unassigned) [Ex-4.244, (R)(3S,4S)(3S,4S) or (R)(3S,4S)(3R,4R) or (R)(3R,4R)(3S,4S) or (R)(3R,4R)(3R,4R) or (S)(3S,4S)(3S,4S) or (S)(3S,4S)(3R,4R) or (S)(3R,4R)(3S,4S) or (S)(3R,4R)(3R,4R) N-[5-chloro-1-(2,2-difluorocyclopropyl)-1H-pyrazol-4-yl]-7-[3-fluoro-1-(4-methoxyoxolan-3-yl)piperidin-4-yl]-6-methylquinazolin-2-amine] | >9.20 |
| Cn1nc(C(C)(C)C)cc1Nc1ncc2cc(Cl)c([C@@H]3CCN([C@]4(C)COC[C@@H]4O)C[C@H]3F)cc2n1 (single isomer, unassigned) [Ex-4.245, (3S,4S)(3S,4S) or (3S,4S)(3R,4R) or (3R,4R)(3S,4S) or (3R,4R)(3R,4R) 4-(4-{2-[(3-tert-butyl-1-methyl-1H-pyrazol-5-yl)amino]-6-chloroquinazolin-7-yl}-3-fluoropiperidin-1-yl)-4-methyloxolan-3-ol] | >9.20 |
| CO[C@@H]1COC[C@@H]1N1CC[C@@H](c2cc3nc(Nc4cnn(C5CC5(F)F)c4Cl)ncc3cc2C)[C@H](F)C1 (single isomer, unassigned) [Ex-4.246, (R)(3S,4S)(3S,4S) or (R)(3S,4S)(3R,4R) or (R)(3R,4R)(3S,4S) or (R)(3R,4R)(3R,4R) or (S)(3S,4S)(3S,4S) or (S)(3S,4S)(3R,4R) or (S)(3R,4R)(3S,4S) or (S)(3R,4R)(3R,4R) N-[5-chloro-1-(2,2-difluorocyclopropyl)-1H-pyrazol-4-yl]-7-[3-fluoro-1-(4-methoxyoxolan-3-yl)piperidin-4-yl]-6-methylquinazolin-2-amine] | 8.22 |

Same assay, conditions: G2019S LRRK2, 134 μM ATP (Km ATP), mean values; read-out: LRRK2 pIC50 (converted)

| SMILES | IC50 |
| --- | --- |
| Cc1c(Nc2ncc3cc(Cl)c(C4CCN(CC(O)c5ccc(C#N)cc5)CC4)cc3n2)cnn1C1CC1 (single isomer, unassigned) [Ex-4.226, (S) or (R) 4-[2-(4-{6-chloro-2-[(1-cyclopropyl-5-methyl-1H-pyrazol-4-yl)amino]quinazolin-7-yl}piperidin-1-yl)-1-hydroxyethyl]benzonitrile] | 3.72 nM |
| Cc1c(Nc2ncc3cc(Cl)c(C4CCN(CC(O)CN5CCOCC5)CC4)cc3n2)cnn1C1CC1 (single isomer, unassigned) [Ex-4.227, (S) or (R) 1-(4-{6-chloro-2-[(1-cyclopropyl-5-methyl-1H-pyrazol-4-yl)amino]quinazolin-7-yl}piperidin-1-yl)-3-(morpholin-4-yl)propan-2-ol] | < 0.631 nM |
| Cc1c(Nc2ncc3cc(Cl)c(C4CCN(CC(O)CN5CCOCC5)CC4)cc3n2)cnn1C1CC1 (single isomer, unassigned) [Ex-4.228, (S) or (R) 1-(4-{6-chloro-2-[(1-cyclopropyl-5-methyl-1H-pyrazol-4-yl)amino]quinazolin-7-yl}piperidin-1-yl)-3-(morpholin-4-yl)propan-2-ol] | 1.55 nM |
